Measurements taken from PubChem BioAssay (NCI).
“And” between values parts separate entries of the source, which are not always exact repeats. Identical values can stand only once.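 A five-concentration, 48-hour dose response in 96-well plates underlies each endpoint, interpolated linearly between surrounding concentrations. GI50 marks 50% less growth. TGI marks complete inhibition of growth.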

Tests used:
Assay in all cases: growth of human tumour cells (NCI), 48 h
UACC-257 melanoma = tested on: UACC-257 melanoma
A549 NSCLC = tested on: A549 NSCLC
SNB-75 CNS = tested on: SNB-75 CNS
U251 CNS = tested on: U251 CNS
K-562 leukemia = tested on: K-562 leukemia
CAKI-1 renal = tested on: CAKI-1 renal
HCC-2998 colon = tested on: HCC-2998 colon
OVCAR-5 ovarian = tested on: OVCAR-5 ovarian
HCT-116 colon = tested on: HCT-116 colon
SF-268 CNS = tested on: SF-268 CNS

Structure (SMILES) | TGI (UACC-257 melanoma) | TGI (A549 NSCLC) | TGI (SNB-75 CNS) | TGI (U251 CNS) | TGI (K-562 leukemia) | TGI (CAKI-1 renal) | TGI (HCC-2998 colon) | TGI (OVCAR-5 ovarian) | TGI (HCT-116 colon) | TGI (SF-268 CNS) | GI50 (UACC-257 melanoma) | GI50 (A549 NSCLC) | GI50 (SNB-75 CNS) | GI50 (U251 CNS) | GI50 (K-562 leukemia) | GI50 (CAKI-1 renal) | GI50 (HCC-2998 colon) | GI50 (OVCAR-5 ovarian) | GI50 (HCT-116 colon) | GI50 (SF-268 CNS)
N#CC1CCCCOCCOCCOCCOCCOCCCCCC1=O (stereo not drawn) | > 100 µM | > 100 µM | > 100 µM | > 100 µM | > 100 µM | > 100 µM | > 100 µM | > 100 µM | > 100 µM | > 100 µM | – | – | – | – | – | – | – | – | – | –
CC1=C(/C=C/C(C)=C/C=C/C(C)=C/C=N/NC(=S)NC(=S)N/N=C/C=C(C)/C=C/C=C(C)/C=C/C2=C(C)CCCC2(C)C)C(C)(C)CCC1 | 12 µM and 9.82 µM | 12.7 µM and 10.8 µM | 6.75 µM and 3.28 µM | 7.18 µM and 4.62 µM | 8.62 µM and 6.63 µM | 7.12 µM and 2.9 µM | 13.5 µM and 11.8 µM | 9.72 µM and 8.04 µM | 8.4 µM and 2.23 µM | 11.9 µM and 9.11 µM | 5.49 µM and 3.64 µM | 5.4 µM and 3.79 µM | 2.06 µM and 1.16 µM | 2.17 µM and 1.58 µM | 1.96 µM and 1.29 µM | 1.6 µM and 0.853 µM | 6.73 µM and 4.07 µM | 3.49 µM and 2.84 µM | 1.91 µM and 0.916 µM | 5.38 µM and 2.47 µM
N#Cc1c(Br)n(C2OC(CO)C(O)C2O)c2ncnc(N)c12 (stereo not drawn) | 38.5 µM | > 27 µM | 30.7 µM | > 100 µM | > 47.4 µM | 2.91 µM | 26.3 µM | > 100 µM | > 77.7 µM | 18.9 µM | 4.72 µM | 1.13 µM | 3.98 µM | 1.85 µM | 1.07 µM | 0.677 µM | 2.15 µM | 4.17 µM | 0.685 µM | 1.5 µM
COc1ccc(S(=O)(=O)NC2=NCCN2C(=S)SN2CCn3c2nsc3=S)cc1 | 50.2 µM | 79.4 µM | 42.5 µM | 40.5 µM | > 100 µM | 62.8 µM | 37.9 µM | 33.3 µM | 27.9 µM | 37.8 µM | 16.8 µM | 23.4 µM | 19.5 µM | 18.8 µM | 28.1 µM | 17.9 µM | 21.4 µM | 17.3 µM | 14.4 µM | 18 µM
Cc1c(CCO)c(=O)n2c([nH]c3ccccc32)c1C#N | > 100 µM | > 100 µM | > 100 µM | > 100 µM | > 100 µM | > 100 µM | > 100 µM | > 100 µM | > 100 µM | > 100 µM | – | – | – | – | – | – | – | – | – | –
NC(=O)c1ccccc1NC(=O)C(=O)Cc1nc2ccccc2[nH]c1=O | > 100 µM | > 100 µM | > 100 µM | > 100 µM | > 100 µM | > 100 µM | > 100 µM | > 100 µM | > 100 µM | > 100 µM | – | – | – | – | – | – | – | – | – | –
COP(=O)(OC)C(NC(=O)C(F)(F)F)(c1ccccc1)C(F)(F)F (stereo not drawn) | > 100 µM | > 100 µM | > 100 µM | > 100 µM | > 100 µM | > 100 µM | > 100 µM | > 100 µM | > 100 µM | > 100 µM | – | – | – | – | – | – | – | – | – | –
CN(C)c1nnnn1-c1c(N)n(C)c(=O)n(C)c1=O | > 100 µM | > 100 µM | > 100 µM | > 100 µM | > 100 µM | > 100 µM | > 100 µM | > 100 µM | > 100 µM | > 100 µM | – | – | – | – | – | – | – | – | – | –
Cc1cc(Nc2nc(-c3cccnc3)nc3ccccc23)n[nH]1 | > 100 µM | > 100 µM | 2.18 µM | > 53.1 µM | > 100 µM | – | > 100 µM | > 100 µM | > 100 µM | > 67.2 µM | 42.2 µM | 0.672 µM | 0.3 µM | 1.25 µM | 3.07 µM | 0.325 µM | 21.5 µM | 7.77 µM | 0.494 µM | 2.47 µM
CC(=O)OC1=CC2=CC[C@H]3[C@@H]4CCC(=O)[C@@]4(C)CC(=O)[C@]3(S)[C@@]2(C)CC1 | 79.6 µM | > 100 µM | > 100 µM | > 100 µM | 76.7 µM | > 100 µM | 65.1 µM | > 100 µM | 49.3 µM | 89.6 µM | – | – | – | – | – | – | – | – | – | –
S=c1[nH]nc(Cc2ccccc2)c(=S)[nH]1 | > 100 µM | > 100 µM | 89.1 µM | > 100 µM | > 100 µM | > 100 µM | > 71.8 µM | > 100 µM | > 100 µM | > 21.3 µM | – | – | – | – | – | – | – | – | – | –
CN(C)c1ccc(/C=C/c2ccc(/C=C/c3ccc(N(C)C)cc3)cc2)cc1 | > 100 µM | > 100 µM | > 100 µM | > 100 µM | > 100 µM | > 100 µM | > 100 µM | > 100 µM | > 100 µM | > 100 µM | – | – | – | – | – | – | – | – | – | –
Cc1cn(C2C=CC(CO)O2)c(=O)[nH]c1=O (stereo not drawn) | > 1000 µM | > 1000 µM | > 1000 µM | > 1000 µM | > 1000 µM | > 1000 µM | > 1000 µM | > 1000 µM | > 1000 µM | > 1000 µM | – | – | – | – | – | – | – | – | – | –
CC(C)N1CCN(Cc2ccc3c(NNC(=O)c4ccccc4)nc4cc(F)ccc4n23)CC1 | 11.9 µM | 8.47 µM | 7.24 µM | 2.01 µM | 3.87 µM | 6.26 µM | 6.45 µM | 6.83 µM | 1.45 µM | 12.7 µM | 0.81 µM | 0.465 µM | 0.451 µM | 0.296 µM | 0.379 µM | 0.249 µM | 0.699 µM | 0.674 µM | 0.238 µM | 0.355 µM
CCN(Cc1ccc(F)cc1)c1ccc(CO)c(C)c1 | 15 µM | 69.4 µM | 20.2 µM | 40.1 µM | > 72.5 µM | 25.5 µM | 29.4 µM | 4.46 µM | 17.6 µM | > 58.9 µM | 2.92 µM | 17.1 µM | 4.1 µM | 12.1 µM | 9.03 µM | 3.28 µM | 14.6 µM | 0.856 µM | 2.02 µM | 24.9 µM
Nc1nc(N)c(C=Nc2ccc(Br)cc2)c(Nc2ccc(Br)cc2)n1 | 30.7 µM | 29.6 µM | 18.6 µM | 30.1 µM | 8.68 µM | 18.7 µM | 14 µM | 21.5 µM | 19.2 µM | 27.1 µM | 14.7 µM | 12.4 µM | 5.02 µM | 12 µM | 2.91 µM | 3.45 µM | 3.89 µM | 9.98 µM | 6.46 µM | 8.16 µM
Cc1cccc(C(C)C)c1N1C(=O)C(=O)C(c2nc3ccccc3o2)C(=O)C1=O | > 100 µM | > 100 µM | > 100 µM | > 100 µM | > 100 µM | > 100 µM | > 100 µM | > 100 µM | > 100 µM | > 100 µM | – | – | – | – | – | – | – | – | – | –
Cc1ccc(/C=C2\CN(C(=O)C(Cl)Cl)C/C(=C\c3ccc(C)cc3)C2=O)cc1 | 3.16 µM | – | 2.9 µM | 0.334 µM | > 100 µM | 1.01 µM | 0.33 µM | 1.46 µM | 0.194 µM | 2.43 µM | 0.346 µM | 0.293 µM | 0.573 µM | 0.143 µM | 0.142 µM | 0.273 µM | 0.176 µM | 0.333 µM | 0.0654 µM | 0.331 µM
Cc1nc2c(o1)C(=Nc1ccccc1)c1ccccc1C2=O | 19.5 µM | 38.3 µM | 23.6 µM | 9.4 µM | > 100 µM | 36.7 µM | 32.9 µM | 32.4 µM | 23.2 µM | 24 µM | – | – | – | – | – | – | – | – | – | –
Clc1ccc(-c2nnc(-c3cccc4ccccc34)o2)cc1Cl | > 100 µM | > 100 µM | > 100 µM | > 100 µM | > 100 µM | > 100 µM | > 100 µM | > 100 µM | > 100 µM | > 100 µM | – | – | – | – | – | – | – | – | – | –
